What was measured:
[1] = system: PC-3 prostate cancer cell line; test: SRB assay cell viability, PC-3 prostate cancer cell line; assay type: cell-based, human; settings: Homo sapiens, PC-3 prostate cancer cell line, Table II prints no unit, μM printed, read-out: SRB assay: 50% inhibition of cancer cell proliferation of sample concentration (IC50) of PC-3 prostate cancer cell line

| Structure (SMILES) | melting point [°C] | IC50 [1] [µM] |
| --- | --- | --- |
| Cc1ccc(Oc2cc3c(c4nsnc24)C(=O)c2ccccc2C3=O)cc1 | 244 to 245 | – |
| O=C1c2ccccc2C(=O)c2c1cc(S(=O)(=O)[O-])c1nsnc21.[Na+] [C3, Sodium 6,11-dioxo-6,11-dihydroanthra[2,1-c][1,2,5]thiadiazole-4-sulfonate] | 293 to 295 | 13.3 |
| CCN(CC)c1cc2c(c3nsnc13)C(=O)c1ccccc1C2=O [C5, 4-(diethylamino)anthra[2,1-c][1,2,5] thiadiazol-6,11-dione] | 204 to 205 | 1.1 |
